Results reported in publication PMC6651548, “Synthesis and AChE Inhibitory Activity of Novel Thiazolylhydrazone Derivatives” (Molecules, 2019).

Columns and labels:
AChE = AChE (Homo sapiens, UniProt P22303); experiment: biochemical; settings: for inhibition at 1000 µM: 10^−3 M; for IC50: 10^−3–10^−9 M concentrations; for inhibition at 100 µM: 10^−4 M
BChE = BChE (Homo sapiens, UniProt P06276); experiment: Anticholinesterase activity assay (modified Ellman method), BChE; format: biochemical; settings: for inhibition at 1000 µM: 10^−3 M; for inhibition at 100 µM: 10^−4 M
Protocol: . Initially, all the obtained compounds were tested at 10^−3 M and 10^−4 M concentrations and the ChE inhibitory results are outlined in Table 1. […]. Compounds 3a, 3c and 3i indicated more than 50% activity at the 10^−4 M concentration. […]. […] According to the results of activity tests, some general results can be listed as follows. The compounds 3a, 3c and 3i contain the non-substituted, methoxy and trifluoromethyl substituents on the phenyl ring, respectively. […]
The inhibitory capacity of the obtained compounds on AChE and BChE biological activities was assessed using a modified Ellman’s spectrometric method, as described in our previous studies. Donepezil were used as a reference drug. All pipetting procedures in the enzyme inhibition assay were carried out via a robotics system, Biotek Precision XS (Winooski, VT, USA). A BioTek-Synergy H1 microplate reader (Winooski, VT, USA) was used to carry out measurements of percent inhibition at 412 nm, and the IC50 values of the selected compounds were performed as previously described.

hMAO-A = molecular target: T1, hMAO-A (Homo sapiens, UniProt P21397); experiment: Monoamine oxidase fluorometric inhibition assay, MAO-A; format: biochemical; settings: for inhibition at 1000 µM: 10^−3 M; for inhibition at 100 µM: 10^−4 M
T1 construct: purchased Sigma-Aldrich (Steinheim, Germany)
T1 sequence (P21397 1-527): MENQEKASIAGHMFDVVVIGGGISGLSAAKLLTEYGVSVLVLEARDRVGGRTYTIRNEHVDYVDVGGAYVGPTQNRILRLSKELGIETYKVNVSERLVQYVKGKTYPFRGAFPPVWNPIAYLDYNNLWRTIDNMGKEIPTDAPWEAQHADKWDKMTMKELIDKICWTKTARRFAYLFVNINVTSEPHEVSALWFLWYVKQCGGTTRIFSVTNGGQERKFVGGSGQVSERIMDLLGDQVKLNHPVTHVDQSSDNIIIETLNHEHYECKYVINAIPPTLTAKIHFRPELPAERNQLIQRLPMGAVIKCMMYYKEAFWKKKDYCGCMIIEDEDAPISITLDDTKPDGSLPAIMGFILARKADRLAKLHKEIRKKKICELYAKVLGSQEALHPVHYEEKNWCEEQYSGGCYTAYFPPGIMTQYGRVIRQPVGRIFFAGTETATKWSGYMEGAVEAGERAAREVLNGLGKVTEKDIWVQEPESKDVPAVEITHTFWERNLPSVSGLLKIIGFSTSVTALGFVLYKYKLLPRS
Protocol: In order to investigate the monoamine oxidase enzyme inhibitory effects of synthesized compounds, MAO-A and MAO-B enzyme activities were performed by using a fluorometric inhibition method. Moclobemide and selegiline were used as standard drugs for MAO-A and MAO-B enzymes, respectively. Test compounds and standard drugs were used in the same concentrations as in AChE and BChE enzyme activity assays. In Table 2, MAO enzyme inhibitory results are given. […]. To investigate the MAO-A and MAO-B enzyme inhibition profiles of the synthesized compounds, the fluorometric enzyme inhibition assay was carried out, as previously defined by us. Ampliflu™ Red (10-Acetyl-3,7-dihydroxyphenoxazine) was used as a fluorescence reagent in this assay.

hMAO-B = molecular target: T2, hMAO-B (Homo sapiens, UniProt P27338); experiment: biochemical; settings: for inhibition at 1000 µM: 10^−3 M; for inhibition at 1000 µM / inhibition at 100 µM: read-out: MAO-B % Inhibition; for inhibition at 100 µM: 10^−4 M; for IC50: read-out: MAO-B IC50
T2 construct: purchased Sigma-Aldrich (Steinheim, Germany)
T2 sequence (P27338 1-520): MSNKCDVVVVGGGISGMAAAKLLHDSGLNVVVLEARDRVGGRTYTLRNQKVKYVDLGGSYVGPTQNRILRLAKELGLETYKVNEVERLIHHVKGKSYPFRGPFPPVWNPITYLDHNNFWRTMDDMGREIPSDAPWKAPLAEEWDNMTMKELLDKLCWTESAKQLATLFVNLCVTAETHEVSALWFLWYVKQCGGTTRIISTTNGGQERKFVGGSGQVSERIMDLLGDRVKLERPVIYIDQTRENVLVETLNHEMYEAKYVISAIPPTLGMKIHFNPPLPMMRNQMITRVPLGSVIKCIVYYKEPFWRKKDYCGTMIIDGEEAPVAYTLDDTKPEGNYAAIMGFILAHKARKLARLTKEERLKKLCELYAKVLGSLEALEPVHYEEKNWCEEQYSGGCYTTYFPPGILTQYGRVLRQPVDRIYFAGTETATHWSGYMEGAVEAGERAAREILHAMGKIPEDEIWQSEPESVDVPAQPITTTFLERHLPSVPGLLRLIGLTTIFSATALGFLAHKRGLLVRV
Protocol: Test compounds and standard drugs were used in the same concentrations as in AChE and BChE enzyme activity assays. […] To investigate the MAO-A and MAO-B enzyme inhibition profiles of the synthesized compounds, the fluorometric enzyme inhibition assay was carried out, as previously defined by us. Ampliflu™ Red (10-Acetyl-3,7-dihydroxyphenoxazine) was used as a fluorescence reagent in this assay.

Chain of BChE (P06276 29-602): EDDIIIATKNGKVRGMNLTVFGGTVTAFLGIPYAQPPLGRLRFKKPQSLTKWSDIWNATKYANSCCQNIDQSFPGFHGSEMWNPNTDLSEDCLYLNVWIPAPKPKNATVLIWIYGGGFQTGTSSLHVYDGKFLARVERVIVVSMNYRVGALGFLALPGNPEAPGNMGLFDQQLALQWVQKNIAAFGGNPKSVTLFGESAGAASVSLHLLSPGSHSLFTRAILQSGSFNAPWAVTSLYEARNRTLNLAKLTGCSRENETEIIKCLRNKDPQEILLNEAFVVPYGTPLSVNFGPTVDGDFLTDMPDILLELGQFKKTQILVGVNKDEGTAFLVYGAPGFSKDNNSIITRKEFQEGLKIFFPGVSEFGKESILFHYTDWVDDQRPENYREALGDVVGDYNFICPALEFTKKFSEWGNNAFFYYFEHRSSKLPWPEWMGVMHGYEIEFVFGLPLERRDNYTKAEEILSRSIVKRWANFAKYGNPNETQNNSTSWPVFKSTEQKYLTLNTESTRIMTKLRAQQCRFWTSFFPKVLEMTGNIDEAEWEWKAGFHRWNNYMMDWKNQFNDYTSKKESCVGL
Chain of AChE (P22303 32-614): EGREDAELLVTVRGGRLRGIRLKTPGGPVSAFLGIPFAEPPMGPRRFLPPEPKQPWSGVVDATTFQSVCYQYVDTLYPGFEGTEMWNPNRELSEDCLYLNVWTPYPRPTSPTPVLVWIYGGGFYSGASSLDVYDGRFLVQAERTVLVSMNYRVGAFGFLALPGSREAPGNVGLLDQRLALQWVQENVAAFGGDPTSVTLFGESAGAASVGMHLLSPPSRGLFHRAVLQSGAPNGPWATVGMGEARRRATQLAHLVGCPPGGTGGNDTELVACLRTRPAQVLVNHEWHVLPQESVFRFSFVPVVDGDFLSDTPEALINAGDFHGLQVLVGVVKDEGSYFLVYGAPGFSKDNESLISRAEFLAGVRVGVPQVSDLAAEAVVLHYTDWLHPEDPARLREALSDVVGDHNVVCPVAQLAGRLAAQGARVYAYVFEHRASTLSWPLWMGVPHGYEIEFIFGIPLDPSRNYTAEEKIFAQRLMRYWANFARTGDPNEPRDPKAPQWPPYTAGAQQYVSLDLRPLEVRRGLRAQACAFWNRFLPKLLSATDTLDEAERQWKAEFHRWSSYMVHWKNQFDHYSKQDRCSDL

Row | Compound | inhibition at 1000 µM (AChE) | IC50 (AChE) | inhibition at 1000 µM (BChE) | inhibition at 100 µM (BChE) | inhibition at 1000 µM (hMAO-A) | inhibition at 100 µM (hMAO-A) | inhibition at 1000 µM (hMAO-B) | inhibition at 100 µM (hMAO-B) | IC50 (hMAO-B) | inhibition at 100 µM (AChE)
1 | Fc1ccc(N2CCN(c3ccc(C=NNc4nc(-c5ccccc5)cs4)cc3)CC2)cc1 [Compound 3a, 2-(2-(4-(4-(4-fluorophenyl)piperazin-1-yl)benzylidene)hydrazineyl)-4-phenylthiazole] | 84.2 ± 0.89% | 0.0496 ± 0.002 µM | 21.5 ± 0.38% | 19.3 ± 0.28% | 38.2 ± 0.95% | 20.1 ± 0.63% | 78.2 ± 1.05% | 70.2 ± 0.99% | 2.11 ± 0.086 µM | –
2 | Cc1ccc(-c2csc(NN=Cc3ccc(N4CCN(c5ccc(F)cc5)CC4)cc3)n2)cc1 [Compound 3b, 2-(2-(4-(4-(4-fluorophenyl)piperazin-1-yl)benzylidene)hydrazineyl)-4-(p-tolyl)thiazole] | 75.3 ± 1.05% | – | 37.4 ± 0.67% | 25.3 ± 0.58% | 44.2 ± 1.08% | 25.8 ± 0.8% | 60.8 ± 1.11% | 46.7 ± 0.98% | – | 45.9 ± 0.88%
3 | O=[N+]([O-])c1ccc(-c2csc(NN=Cc3ccc(N4CCN(c5ccc(F)cc5)CC4)cc3)n2)cc1 [Compound 3d, 2-(2-(4-(4-(4-fluorophenyl)piperazin-1-yl)benzylidene)hydrazineyl)-4-(4-nitrophenyl)thiazole] | 76.7 ± 1.12% | – | 35.4 ± 0.49% | 31.9 ± 0.56% | 51 ± 0.97% | 39.1 ± 0.71% | 75.7 ± 1.06% | 65.2 ± 0.97% | 5.2 ± 0.153 µM | 38.5 ± 0.76%
4 | N#Cc1ccc(-c2csc(NN=Cc3ccc(N4CCN(c5ccc(F)cc5)CC4)cc3)n2)cc1 [Compound 3e, 4-(2-(2-(4-(4-(4-fluorophenyl)piperazin-1-yl)benzylidene)hydrazineyl)thiazol-4-yl)benzonitrile] | 71.2 ± 0.9% | – | 31.8 ± 0.61% | 24.9 ± 0.38% | 47.2 ± 0.88% | 23.5 ± 0.6% | 58.1 ± 0.9% | 43.1 ± 0.71% | – | 42.3 ± 0.63%
5 | Fc1ccc(-c2csc(NN=Cc3ccc(N4CCN(c5ccc(F)cc5)CC4)cc3)n2)cc1 [Compound 3f, 4-(4-fluorophenyl)-2-(2-(4-(4-(4-fluorophenyl)piperazin-1-yl)benzylidene)hydrazineyl)thiazole] | 78.4 ± 1.04% | – | 28.2 ± 0.42% | 20.4 ± 0.35% | 30.1 ± 0.47% | 19.3 ± 0.41% | 57.3 ± 1.03% | 39.2 ± 0.79% | – | 48.1 ± 0.87%
6 | Fc1ccc(N2CCN(c3ccc(C=NNc4nc(-c5ccc(Cl)cc5)cs4)cc3)CC2)cc1 [Compound 3g, 4-(4-chlorophenyl)-2-(2-(4-(4-(4-fluorophenyl)piperazin-1-yl)benzylidene)hydrazineyl)thiazole] | 64.5 ± 0.67% | – | 38.54 ± 0.35% | 20.2 ± 0.35% | 48.2 ± 0.97% | 30.2 ± 0.5% | 68.1 ± 1.12% | 41.8 ± 0.86% | – | 37.8 ± 0.6%
7 | Fc1ccc(N2CCN(c3ccc(C=NNc4nc(-c5ccc(Br)cc5)cs4)cc3)CC2)cc1 [Compound 3h, 4-(4-bromophenyl)-2-(2-(4-(4-(4-fluorophenyl)piperazin-1-yl)benzylidene)hydrazineyl)thiazole] | 75.3 ± 1.06% | – | 40.6 ± 0.68% | 35.5 ± 0.41% | 34.2 ± 0.58% | 22.2 ± 0.47% | 68.9 ± 1.25% | 39.1 ± 0.63% | – | 47.1 ± 0.74%
8 | Fc1ccc(N2CCN(c3ccc(C=NNc4nc(-c5ccc(C(F)(F)F)cc5)cs4)cc3)CC2)cc1 [Compound 3i, 2-(2-(4-(4-(4-fluorophenyl)piperazin-1-yl)benzylidene)hydrazineyl)-4-(4-(trifluoromethyl)phenyl)thiazole] | 80.7 ± 1.02% | 0.216 ± 0.01 µM | 45.4 ± 0.52% | 35.4 ± 0.39% | 38.2 ± 0.78% | 22.8 ± 0.54% | 59.1 ± 0.77% | 40.2 ± 0.58% | – | > 50%
9 | Cc1ccc(-c2csc(NN=Cc3ccc(N4CCN(c5ccc(F)cc5)CC4)cc3)n2)c(C)c1 [Compound 3j, 4-(2,4-dimethylphenyl)-2-(2-(4-(4-(4-fluorophenyl)piperazin-1-yl)benzylidene)hydrazineyl)thiazole] | 53.8 ± 0.62% | – | 31.9 ± 0.47% | 25.7 ± 0.49% | 48.2 ± 0.88% | 40.2 ± 0.52% | 69.2 ± 1.2% | 40.8 ± 0.92% | – | 26.9 ± 0.55%
10 | Fc1ccc(N2CCN(c3ccc(C=NNc4nc(-c5ccc(Cl)cc5Cl)cs4)cc3)CC2)cc1 [Compound 3k, 4-(2,4-dichlorophenyl)-2-(2-(4-(4-(4-fluorophenyl)piperazin-1-yl)benzylidene)hydrazineyl)thiazole] | 35.7 ± 0.57% | – | 28.59 ± 0.25% | 21 ± 0.61% | 35.2 ± 0.48% | 19.1 ± 0.4% | 55.1 ± 0.92% | 34.2 ± 0.81% | – | 20.4 ± 0.3%
11 | O=C(NCCN1CCOCC1)c1ccc(Cl)cc1 [Moclobemide, reference compound] | – | – | – | – | 91.2 ± 2.8% | 78.2 ± 2.55% | – | – | – | –
